Source: patent publication US11566260B2, “Potentiating agents for protecting plants from fungal infections” (UNIVERSITE D'ANGERS, priority 2012, dated 2023)

How the values were obtained:
Alternaria brassicicola [1] = assay: Test B: potentiating effect with a plant defense molecule on growth of Alternaria brassicicola; type: cell-based
Description: (§1) Test B: • 1) Determining a non-fungicidal amount of said agent, preferably according to Test A; • 2) Determining a non-fungicidal amount of a plant defense molecule, preferably according to Test A; • 3) Measuring growth of fungal conidia in a medium comprising a combination of a non-fungicidal amount of the agent, as determined in step 1, and a non-fungicidal amount of the plant defense molecule, as determined in step 2. In one embodiment, the growth is measured as follows: Suspensions of fungal conidia (starting material: 10^5 conidia/mL) are cultured in liquid medium, such as, for example, 300 μL of PBD medium, on microplate wells at 25° C. with shaking at 175 rpm for 5 minutes every 10 minutes. Non-fungicidal concentrations of the tested agent and of the tested plant defense molecule are added on wells, and fungal growth is measured during at least 5 hours, preferably at least 10, 20, 30 hours. Methods for measuring fungal growth are well known from the skilled artisan. Examples of such methods include, but are not limited to, photometry, such as, for example, spectrophotometric methods; or nephelometry, such as, for example, laser nephelometry as described in Joubert et al (Biotechniques, 2010, 48:399-404). Growth inhibition is measured by comparing the Area Under Curves (AUC) of treated samples and of untreated controls.
The potentiating effect of chelerythrin is measured in a suspension of conidia treated with a plant defense molecule, camalexin, which is present at a non-fungicidal amount as determined hereinabove. Said non-fungicidal amount is consistent with the amount of camalexin produced by an infected plant organ.
Alternaria brassicicola growth was measured as described hereinabove.
A non-fungicidal amount of chelerythrin (as determined in Example 1a) and/or a non-fungicidal amount of camalexin (as determined in Example 1b) or 10 μL of DMSO are added per well, and growth curves were drawn (FIG. 3).
In the Table 5 below are shown compounds (column 1) having a potentiating effect of a plant defense molecule (column 2) for the inhibition of a pathogenic fungus (column 3). The type of the potentiating agent in this particular situation is given in column 4 (homologous or heterologous). Triads were identified according to Test B.

Alternaria brassicicola [2] = assay: Test A: growth of Alternaria brassicicola conidia followed by nephelometry, to find the non-fungicidal amount; type: cell-based
Description: Suspensions of fungal conidia (starting material being for example 10^5 conidia/mL) are cultured in liquid medium, such as, for example, 300 μL of PBD medium, on microplate wells at 25° C. with shaking at 175 rpm for 5 minutes every 10 minutes. Increasing concentrations of the tested product are added on wells, and fungal growth is measured, during at least 5 hours, preferably at least 10, 20, 30 hours. Methods for measuring fungal growth are well known from the skilled artisan. Examples of such methods include, but are not limited to, photometry, such as, for example, spectrophotometric methods; or nephelometry, such as, for example, laser nephelometry as described in Joubert et al (Biotechniques, 2010, 48:399-404). Growth inhibition is measured by comparing the Area Under Curves (AUC) of treated samples and of untreated controls. Test A is carried out in Example 1.
Alternaria brassicicola strains were cultivated at 24° C. on potato dextrose (PD) medium (Cat. No. 213200; Becton Dickinson, USA).
For inoculum preparation, conidia were collected from 8-days-old solid cultures by adding PD broth followed by gentle scraping of the agar plates. They were counted in a Thoma's chamber and the conidial suspensions were diluted to the concentration of 10^5 conidia/mL.
Growth was automatically recorded for at least 30 hours at 25° C. using a nephelometric reader (NEPHELOstar Galaxy, BMG Labtech, Germany) equipped with a 635-nm laser as radiation source. During incubation, the 96-well plates were subjected to shaking at 175 rpm for 5 minutes every 10 minutes. Measurements were done every hour with a gain value of 90 and a percentage of the maximum value of 20%. Each well was measured for 0.1 second with a laser beam of 2.5 mm.
Chelerythrin (25 μM or 50 μM, test wells) or 10 μL of DMSO (chelerythrin solvent, control wells) were added on wells, and growth curves were drawn (FIG. 1).
Camalexin (10, 20, 40 or 60 μM, test wells) or 10 μL of DMSO (chelerythrin solvent, control wells) were added on wells, and growth curves were drawn (FIG. 2).

Alternaria brassicicola [3] = assay: In vivo efficacy on cabbage leaves inoculated with Alternaria brassicicola; settings: 25 μM chelerythrin in inoculum; intact or prewounded B. oleracea cv Bartolo leaves; 6 dpi; vs DMSO side
Description: Example 2 discloses a protocol for determining the in vivo efficacy of the composition of the invention, comprising a potentiating amount of chelerythrin (25 μM), as determined in Example 1.
5 μL drops of Alternaria brassicicola conidia suspension (10^5 to 10^3 conidia/mL) were inoculated on intact or prewounded (i.e wherein the synthesis of plant defense molecules such as Brassinin was naturally triggered by the aggression) leaves of B. oleracea cv Bartolo plants at stages 4-6 leaves per plant. Inocula were deposited on the left and right sides symmetrically from the central vein: inocula comprising 25 μM of chelerythrin were deposited on the right side, and inocula comprising DMSO were deposited on the left side. The plants were then maintained under saturing humidity (100% relative humidity).

[4] = test system: BY4743 strain transformed with the empty pYES2-CT vector; assay: Test C: growth of S. cerevisiae control strain (empty pYES2-CT vector); type: cell-based, Saccharomyces cerevisiae; settings: for Area under the curve: OD 600 nm
Description: (§2) Test C is based on the essential role of Pkc1 in fungal cells: if its essential function is inhibited, the growth of the fungal cells will be affected. Therefore, in Test C, two different strains of S. cerevisiae are cultured in the presence of the tested compound: the first one is a wild-type strain, whereas the second overexpresses the fungal Pkc1 gene. If the tested compound is an inhibitor of the fungal Pkc1 protein, the growth of the wild-type strain will be inhibited, whereas the induction of the overexpression of the heterologous fungal Pkc1 gene will restore, at least partially, the growth rate. Test C is carried out in Example 3.
(§3) Growth of this strain was monitored in an inducing medium (GS uracil-free medium supplemented with galactose) in presence of increasing concentrations of chelerythrin (0, 25, 50 or 75 μM), and was compared with the growth of a control strain (BY4743 strain transformed with the empty pYES2-CT vector). Growth was measured by spectrometry (Optic density: 600 nm). Inhibition of growth was assessed by comparison of the area under the curves.

[5] = test system: S. cerevisiae strain overexpressing Alternaria brassicicola Pkc1; assay: Test C: growth of S. cerevisiae strain overexpressing Alternaria brassicicola Pkc1 (pYES-PKC); type: cell-based, Saccharomyces cerevisiae; settings: pYES2-PKC; for Area under the curve: inducing medium, OD 600 nm
Description: as §2
Construction of a S. cerevisiae strain overexpressing Alternaria brassicicola Pkc1 The cDNA encoding the Pkc1 gene of Alternaria brassicicola (http://genome.jgi-psf.org/Altbr1/Altbr1.home.html; sequence ref: AB07449.1) was amplified by PCR and cloned into a pYES2-CT vector (Invitrogen, Paisley, UK). The resulting vector (pYES-PKC) was inserted in a BY4743 strain of Saccharomyces cerevisiae.
as §3

[6] = test system: BY4743 strain of Saccharomyces cerevisiae; assay: Test D: growth of S. cerevisiae BY4743 in normal and high osmotic pressure conditions; type: cell-based
Description: Test D is based on the fact that the protein Pkc1 is implied in the CWI pathway. In a situation where the CWI pathway is impaired, growth of fungal cells is less affected by a high osmotic pressure. Consequently, in Test D, a S. cerevisiae strain is cultured in conditions of high osmotic pressure, in the presence or in absence of the tested compound. If said compound is a Pkc1 inhibitor, it will inhibit the growth of cells in normal osmotic pressure conditions, but not, or less, in high osmotic pressure conditions. Test D is carried out in Example 3.
The growth of a BY4743 strain of Saccharomyces cerevisiae on a liquid SD medium comprising increasing concentrations of chelerythrin (0, 10, 15, 20 or 25 μM) was monitored and compared to the growth of the same strain on a liquid SD medium containing 1M of sorbitol (high osmotic pressure conditions) in presence of increasing concentrations of chelerythrin.
Growth was measured by spectrometry (optic density: 600 nm) Inhibition of growth was assessed by comparison of the area under the curves.

Botrytis cinerea = assay: Test B: potentiating effect with a plant defense molecule on Botrytis cinerea; type: cell-based
Description: as §1, with “controls. […]” for “controls.”

Alternaria dauci = assay: Test B: potentiating effect with a plant defense molecule on growth of Alternaria dauci; type: cell-based; settings: plant defense molecule 6-methoxymellein
Description: as §1, with “Examples of such methods include, but are not limited to, photometry, such as, for example, spectrophotometric methods; or nephelometry, such as, for example, laser nephelometry as described in Joubert et al (Biotechniques, 2010, 48:399-404).” left out, “controls. […]” for “controls.”
Following the aforementioned growth inhibition protocol, the following treatments are assessed: • 6-methoxymellein 125 μM, • 6-methoxymellein 100 μM, • 6-methoxymellein 125 μM and M. cordata extract (10 μM of Sanguinarine), • 6-methoxymellein 100 μM and M. cordata extract (10 μM of Sanguinarine).

[7] = plant defense molecule Resveratrol, Alternaria brassicicola
[8] = plant defense molecule Brassinin, Alternaria brassicicola

With CCOc1cc2c3cc(OC)c(OC)cc3cnc2c2cc(OC)c(OC)cc12 [Compound 1] the “Type of potentiating agent (compound having a potentiating effect of the plant defense molecule)” value (“Type of potentiating agent” below) (Alternaria brassicicola [1]; [7]) was “Heterologous”.

For COc1cc2c(OC)cc3c4cc(OC)c(OC)cc4c(=O)n(C)c3c2cc1OC [Compound 5], the “Type of potentiating agent” value (Alternaria brassicicola [1]; [8]) was “Homologous” and the “Type of potentiating agent” value (Alternaria brassicicola [1]; [7]) was “Heterologous”.

COc1ccc2c(c[n+](C)c3c4cc5c(cc4ccc23)OCO5)c1OC [Chelerythrin] was tested, and the “Alternaria brassicicola growth inhibition” value (Alternaria brassicicola [2]; 25 μM chelerythrin, nephelometry, at least 30 hours, 25° C., vs DMSO control) was “does not inhibit”, the non-fungicidal amount (Alternaria brassicicola [2]; Alternaria brassicicola, in vitro) was 25 µM and the “inhibition of Alternaria brassicicola growth by the combination” value (Alternaria brassicicola [1]; 25 μM chelerythrin combined with 10 μM camalexin, both non-fungicidal amounts) was “drastic inhibition”. The “Type of potentiating agent” value (Alternaria brassicicola [1]; [8]) was “Homologous”, the “Type of potentiating agent” value (Alternaria brassicicola [1]; plant defense molecule Camalexin, Alternaria brassicicola) was “Homologous” and the potentiating amount (Alternaria brassicicola [1]; with non-fungicidal amount of camalexin, Alternaria brassicicola) was 25 µM. The “fungal infection of cabbage leafs” value (Alternaria brassicicola [3]) was “limits in vivo the fungal infection”, the “Area under the curve” value ([4]; 25 μM chelerythrin) was 8.6 and the “Area under the curve” value ([4]; 50 μM chelerythrin) was 3.2. For the same compound, the “Area under the curve” value ([4]; 75 μM chelerythrin) was 2.5, the inhibition at 25 µM ([4]; Saccharomyces cerevisiae, 25 μM chelerythrin) was 43% and the inhibition at 50 µM ([4]; Saccharomyces cerevisiae, 50 μM chelerythrin) was 79%. For the same compound, the inhibition at 75 µM ([4]; Saccharomyces cerevisiae, 75 μM chelerythrin) was 84%, the inhibition at 25 µM ([5]; 25 μM chelerythrin) was 15% and the “Area under the curve” value ([5]; 25 μM chelerythrin) was 10.7. The inhibition at 50 µM ([5]; 50 μM chelerythrin) was 25%, the “Area under the curve” value ([5]; 50 μM chelerythrin) was 9.4 and the inhibition at 75 µM ([5]; 75 μM chelerythrin) was 30%. For the same compound, the “Area under the curve” value ([5]; 75 μM chelerythrin) was 8.8, the “Area under the curve” value ([6]; SD + Sorbitol (1M, high osmotic pressure), 10 μM chelerythrin) was 5.2 and the “Area under the curve” value ([6]; SD + Sorbitol (1M, high osmotic pressure), 15 μM chelerythrin) was 5.0. For the same compound, the “Area under the curve” value ([6]; SD + Sorbitol (1M, high osmotic pressure), 20 μM chelerythrin) was 2.0, the “Area under the curve” value ([6]; SD medium, 10 μM chelerythrin) was 14.3 and the “Area under the curve” value ([6]; SD medium, 15 μM chelerythrin) was 11.8. The “Area under the curve” value ([6]; SD medium, 20 μM chelerythrin) was 10.4, the “Area under the curve” value ([6]; SD medium, 25 μM chelerythrin) was 8.1 and the inhibition at 10 µM ([6]; Saccharomyces cerevisiae, SD + Sorbitol (1M, high osmotic pressure), 10 μM chelerythrin) was -3%. It also gave an inhibition at 15 µM ([6]; Saccharomyces cerevisiae, SD + Sorbitol (1M, high osmotic pressure), 15 μM chelerythrin) of 1%, an inhibition at 20 µM ([6]; Saccharomyces cerevisiae, SD + Sorbitol (1M, high osmotic pressure), 20 μM chelerythrin) of 0% and an inhibition at 10 µM ([6]; Saccharomyces cerevisiae, SD medium, 10 μM chelerythrin) of 10%. The inhibition at 15 µM ([6]; Saccharomyces cerevisiae, SD medium, 15 μM chelerythrin) was 26%, the inhibition at 20 µM ([6]; Saccharomyces cerevisiae, SD medium, 20 μM chelerythrin) was 35% and the inhibition at 25 µM ([6]; Saccharomyces cerevisiae, SD medium, 25 μM chelerythrin) was 49%.

In the case of CCOc1cc2c3cc(OC)c(OC)cc3c[n+](C)c2c2cc(OC)c(OC)cc12 [Compound 2], the “Type of potentiating agent” value (Alternaria brassicicola [1]; [8]) is reported as “Homologous”, the “Type of potentiating agent” value (Botrytis cinerea; plant defense molecule Brassinin) is reported as “Homologous” and the “Type of potentiating agent” value (Botrytis cinerea; plant defense molecule Camalexin) is reported as “Homologous”. For the same compound, the “Type of potentiating agent” value (Alternaria dauci) was “Homologous”.
